This assay addresses T1, CqsR-LBD (Vibrio cholerae, UniProt Q9KR16).
T1 construct: gene VC_1831; pET28B His6 tag kept; E. coli BL21(DE3)
The experiment in a line: differential scanning fluorimetry (SYPRO Orange). It is filed as binding. The conditions noted are these: 10 mM ligand; 10 μM protein; PBS pH 7.5, 10% glycerol; Tm without ligand 46 °C. The text has this:
differential scanning fluorimetry (SYPRO Orange) on CqsR-LBD

Take `NC(CO)CO` [Serinol, 2-Amino-1,3-propanediol]: the “Tm (°C)^b” value is 53.67 [0.58].

Consider `C[C@H](N)CO` [L-alaninol, (S)-(+)-2-Amino-1-propanol], for which the “Tm (°C)^b” value is 60 °C.

(Values after paper PMC7046293, “Parallel quorum-sensing system in Vibrio cholerae prevents signal interference inside the host” (PLoS Pathogens, 2020).)
